Reference: US20250353891A1 (MEDIMMUNE LIMITED, priority 2022, published 2025)
Starred links: 1 amine or outer side, 2 acyl side, 3 side chain; linkers in the order of their positions; H or OH if unused. Non-standard residues stand in square brackets, D forms with d. Residues, ends and D or L forms follow the SMILES beside them. Groups on a side chain read outwards from the residue. *: point of attachment. C20 diacid = O=C(O)CCCCCCCCCCCCCCCCCCC(=O)*; C18 diacid = O=C(O)CCCCCCCCCCCCCCCCC(=O)*; γGlu = O=C(O)[C@H](CCC(=O)[*:2])N[*:1]; αMeF = C[C@](N)(Cc1ccccc1)C(=O)O; AEEA = NCCOCCOCC(=O)O; Aib = CC(C)(N)C(=O)O

Assays:
[1] = target: human GLP-1 receptor (hGLP-1R) (Homo sapiens, UniProt P43220); experiment: cAMP production (HTRF) in CHO cells expressing hGLP-1R; format: cell-based; design: expressed in transfected cells; conditions: for EC50: Table 6, peptides modified at position 17, cAMP in CHO hGLP-1R cells, geometric mean, read-out: hGLP-1R EC50; for % Relative Potency Ratio: Table 6, % GLP-1R activity relative to GLP-1 / % GlucR activity relative to glucagon
Method in brief: (§1)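 Potency values represent EC50 from 4-parameter logistic curves of HTRF % Delta F signal. Receptor-expressing CHO cells (hGCGR 2×10^5 cells/mL, hGLP-1R 1×10^5 cells/mL) were exposed for 30 min at room temperature before two-step cAMP detection.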

[2] = target: human glucagon receptor (hGCGR) (Homo sapiens, UniProt P47871); experiment: cAMP production (HTRF) in CHO cells expressing hGCGR; format: cell-based; design: expressed in transfected cells; conditions: Table 6, peptides modified at position 17; cAMP in CHO hGCGR cells; geometric mean; read-out: hGluc-R EC50
Method in brief: as §1

human glucagon receptor (hGCGR), sequence (P47871 26-477): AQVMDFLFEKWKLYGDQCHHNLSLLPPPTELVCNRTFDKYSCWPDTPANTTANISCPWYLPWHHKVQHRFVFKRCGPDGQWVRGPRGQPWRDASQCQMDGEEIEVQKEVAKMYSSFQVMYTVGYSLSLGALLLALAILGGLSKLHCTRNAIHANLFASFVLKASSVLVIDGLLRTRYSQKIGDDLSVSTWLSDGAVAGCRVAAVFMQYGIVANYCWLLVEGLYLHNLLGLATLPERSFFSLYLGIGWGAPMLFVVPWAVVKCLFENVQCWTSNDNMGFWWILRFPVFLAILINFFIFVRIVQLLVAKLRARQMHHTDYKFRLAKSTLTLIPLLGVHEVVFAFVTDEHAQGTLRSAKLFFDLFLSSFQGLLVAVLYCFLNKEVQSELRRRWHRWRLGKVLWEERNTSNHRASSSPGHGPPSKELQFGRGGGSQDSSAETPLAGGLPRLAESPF
human GLP-1 receptor (hGLP-1R), sequence (P43220 24-463): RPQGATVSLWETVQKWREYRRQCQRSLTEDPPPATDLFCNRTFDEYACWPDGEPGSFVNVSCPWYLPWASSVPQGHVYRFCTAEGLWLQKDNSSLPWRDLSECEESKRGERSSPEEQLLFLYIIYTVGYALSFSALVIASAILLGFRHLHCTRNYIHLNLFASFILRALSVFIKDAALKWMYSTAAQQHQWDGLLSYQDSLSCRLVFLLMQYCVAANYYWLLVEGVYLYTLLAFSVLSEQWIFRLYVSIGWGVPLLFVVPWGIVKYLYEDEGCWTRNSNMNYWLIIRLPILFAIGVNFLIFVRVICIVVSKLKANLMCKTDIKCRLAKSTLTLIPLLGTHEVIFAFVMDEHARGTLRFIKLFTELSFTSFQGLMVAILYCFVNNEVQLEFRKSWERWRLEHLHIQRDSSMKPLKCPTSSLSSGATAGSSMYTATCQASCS

EC50 [1] [nM] | % Relative Potency Ratio [1] | EC50 [2] [nM] | Compound
0.00804 | 14.0 | 0.0569 | CC(C)C[C@H](NC(=O)[C@H](CC(C)C)NC(=O)[C@H](Cc1c[nH]c2ccccc12)NC(=O)[C@H](CCC(N)=O)NC(=O)[C@@H](NC(=O)[C@H](Cc1ccccc1)NC(=O)[C@H](CC(=O)O)NC(=O)[C@H](CCCNC(=N)N)NC(=O)[C@H](C)NC(=O)[C@H](CCCNC(=N)N)NC(=O)[C@H](CCCCNC(=O)COCCOCCNC(=O)COCCOCCNC(=O)CC[C@H](NC(=O)CCCCCCCCCCCCCCCCC(=O)O)C(=O)O)NC(=O)[C@@H](NC(=O)[C@H](CC(=O)O)NC(=O)[C@H](CC(C)C)NC(=O)[C@](C)(Cc1ccccc1)NC(=O)[C@H](CCCCN)NC(=O)[C@H](CO)NC(=O)[C@@H](NC(=O)[C@H](CC(=O)O)NC(=O)[C@H](CO)NC(=O)[C@@H](NC(=O)[C@H](Cc1ccccc1)NC(=O)[C@@H](NC(=O)CNC(=O)[C@H](CCC(N)=O)NC(=O)C(C)(C)NC(=O)[C@@H](N)Cc1c[nH]cn1)[C@@H](C)O)[C@@H](C)O)C(C)C)[C@@H](C)O)C(C)C)C(=O)N[C@@H](C)C(=O)NC(C)(C)C(=O)NCC(N)=O [Peptide 474] (H-H[Aib]QGTFTSDVSK[αMeF]LDTK([AEEA-AEEA-γGlu-C18 diacid])RARDFVQWLLA[Aib]G-NH2; N-terminus assumed)
0.00675 | 18.0 | 0.0615 | CC(C)C[C@H](NC(=O)[C@H](CC(C)C)NC(=O)[C@H](Cc1c[nH]c2ccccc12)NC(=O)[C@H](CCC(N)=O)NC(=O)[C@@H](NC(=O)[C@H](Cc1ccccc1)NC(=O)[C@H](CC(=O)O)NC(=O)[C@H](CCCNC(=N)N)NC(=O)[C@H](C)NC(=O)[C@H](CCCNC(=N)N)NC(=O)[C@H](CCCCNC(=O)COCCOCCNC(=O)COCCOCCNC(=O)CC[C@H](NC(=O)CCCCCCCCCCCCCCCCCCC(=O)O)C(=O)O)NC(=O)[C@@H](NC(=O)[C@H](CC(=O)O)NC(=O)[C@H](CC(C)C)NC(=O)[C@](C)(Cc1ccccc1)NC(=O)[C@H](CCCCN)NC(=O)[C@H](CO)NC(=O)[C@@H](NC(=O)[C@H](CC(=O)O)NC(=O)[C@H](CO)NC(=O)[C@@H](NC(=O)[C@H](Cc1ccccc1)NC(=O)[C@@H](NC(=O)CNC(=O)[C@H](CCC(N)=O)NC(=O)C(C)(C)NC(=O)[C@@H](N)Cc1c[nH]cn1)[C@@H](C)O)[C@@H](C)O)C(C)C)[C@@H](C)O)C(C)C)C(=O)N[C@@H](C)C(=O)NC(C)(C)C(=O)NCC(N)=O [Peptide 475] (H-H[Aib]QGTFTSDVSK[αMeF]LDTK([AEEA-AEEA-γGlu-C20 diacid])RARDFVQWLLA[Aib]G-NH2)
0.0573 | 3.6 | 0.104 | CC(C)C[C@H](NC(=O)[C@H](CC(C)C)NC(=O)[C@H](Cc1c[nH]c2ccccc12)NC(=O)[C@H](CCCNC(=N)N)NC(=O)[C@@H](NC(=O)[C@H](Cc1ccccc1)NC(=O)[C@H](CC(=O)O)NC(=O)[C@H](CCC(N)=O)NC(=O)[C@H](C)NC(=O)[C@H](CCCNC(=N)N)NC(=O)[C@H](CCCCNC(=O)COCCOCCNC(=O)COCCOCCNC(=O)CC[C@H](NC(=O)CCCCCCCCCCCCCCCCC(=O)O)C(=O)O)NC(=O)[C@@H](NC(=O)[C@H](CC(=O)O)NC(=O)[C@H](CC(C)C)NC(=O)[C@](C)(Cc1ccccc1)NC(=O)[C@H](CCCCN)NC(=O)[C@H](CO)NC(=O)[C@@H](NC(=O)[C@H](CC(=O)O)NC(=O)[C@H](CO)NC(=O)[C@@H](NC(=O)[C@H](Cc1ccccc1)NC(=O)[C@@H](NC(=O)CNC(=O)[C@H](CCC(N)=O)NC(=O)C(C)(C)NC(=O)[C@@H](N)Cc1c[nH]cn1)[C@@H](C)O)[C@@H](C)O)C(C)C)[C@@H](C)O)C(C)C)C(=O)N[C@@H](C)C(=O)NC(C)(C)C(=O)NCC(N)=O [Peptide 476] (H-H[Aib]QGTFTSDVSK[αMeF]LDTK([AEEA-AEEA-γGlu-C18 diacid])RAQDFVRWLLA[Aib]G-NH2)
